Reference: US5780620A, “Non-reducing oligosaccharides and their production and use” (Kabushiki Kaisha Hayashibara Seibutsu Kagaku Kenkyujo, priority 1993, dated 1998)
≈ marks a conversion by molar mass, not a printed value.

Assays:
[1] = Reducing power by the Somogyi-Nelson method; assay type: physicochemical
Protocol: Thereafter these high-purity saccharide preparations were tested for reducing power with the Somogyi-Nelson method and their reducing powers were represented in terms of DE.

[2] = Acute toxicity in mice upon oral administration; assay type: in vivo; settings: mouse, in vivo, acute
Protocol: (§1) High-purity maltosyl maltoside, maltotriosyl maltoside and maltotriosyl maltotrioside prepared by the method in Experiment B-1 were tested for acute toxicity in mice upon oral administration.

[3] = tested on: mice; assay: Acute toxicity in mice upon oral administration; assay type: in vivo; settings: for death: maximum administrable dose
Protocol: as §1

[4] = Solubility of crystals in water; assay type: physicochemical; settings: purity 99.0%, 25° C. water
Protocol: An alpha-D-maltotriosyl alpha-D-maltotrioside (Substance 3), purity of 97% or higher, prepared by the method in Experiment B-1, was decolored, deionized and concentrated to 70% in usual manner and the concentrate was transferred in a beaker and allowed to stand in 4° C. chilled room for 2 months leading to eduction of crystals. The crystals were centrifugally collected and washed with a minimum amount of water, thus obtaining crystals with a purity of 99.0%.
The physicochemical properties of the crystals as tested were as follows:
Relatively high, about 91 g being soluble in 100 ml of 25° C. water.

[5] = Hygroscopicity of crystalline maltotriosyl maltotrioside; assay type: physicochemical; settings: varies depending on purity

| SMILES | DE (reducing power) [1] | LD50 [2] [mg/kg] | acute toxicity [3] | death [3] | also measured |
| --- | --- | --- | --- | --- | --- |
| OC[C@H]1O[C@H](O[C@H]2[C@H](O)[C@@H](O)[C@@H](O[C@H]3[C@H](O)[C@@H](O)[C@@H](O[C@H]4O[C@H](CO)[C@@H](O[C@H]5O[C@H](CO)[C@@H](O[C@H]6O[C@H](CO)[C@@H](O)[C@H](O)[C@H]6O)[C@H](O)[C@H]5O)[C@H](O)[C@H]4O)O[C@@H]3CO)O[C@@H]2CO)[C@H](O)[C@@H](O)[C@@H]1O [maltotriosyl maltotrioside, O-alpha-D-glucopyranosyl-(1→4)-O-alpha-D-glucopyranosyl-(1→4)-alpha-D-glucopyranosyl alpha-D-maltotrioside] |  | ≥ 50000 | low intoxicity | no death was observed | solubility [4]: ~910 mg/mL (≈ 918 mM); hygroscopicity ([5]; listed as crystalline alpha-D-maltotriosyl alpha-D-maltotrioside): very weak hygroscopicity; hygroscopicity ([5]; listed as crystalline maltotriosyl maltotrioside): substantially non-hygroscopic |
| OC[C@H]1O[C@H](O[C@H]2O[C@H](CO)[C@@H](O[C@H]3O[C@H](CO)[C@@H](O)[C@H](O)[C@H]3O)[C@H](O)[C@H]2O)[C@H](O)[C@@H](O)[C@@H]1O [PI, alpha-glucosyl trehalose] | 0.83 |  |  |  |  |
| OC[C@H]1O[C@H](O[C@H]2[C@H](O)[C@@H](O)[C@@H](O[C@H]3O[C@H](CO)[C@@H](O[C@H]4O[C@H](CO)[C@@H](O[C@H]5O[C@H](CO)[C@@H](O)[C@H](O)[C@H]5O)[C@H](O)[C@H]4O)[C@H](O)[C@H]3O)O[C@@H]2CO)[C@H](O)[C@@H](O)[C@@H]1O [maltotriosyl maltoside, O-alpha-D-glucopyranosyl-(1→4)-O-alpha-D-glucopyranosyl-(1→4)-alpha-D-glucopyranosyl alpha-D-maltoside] |  | ≥ 50000 | low intoxicity | no death was observed |  |
| OC[C@H]1O[C@H](O[C@H]2[C@H](O)[C@@H](O)[C@@H](O[C@H]3O[C@H](CO)[C@@H](O[C@H]4O[C@H](CO)[C@@H](O)[C@H](O)[C@H]4O)[C@H](O)[C@H]3O)O[C@@H]2CO)[C@H](O)[C@@H](O)[C@@H]1O [maltosyl maltoside, O-alpha-D-glucopyranosyl-(1→4)-alpha-D-glucopyranosyl alpha-D-maltoside] |  | ≥ 50000 | low intoxicity | no death was observed |  |

Further lines, with some results ahead:

| DE (reducing power) [1] | SMILES | LD50 [2] [mg/kg] | acute toxicity [3] | death [3] | also measured |
| --- | --- | --- | --- | --- | --- |
| 0.27 | OC[C@H]1O[C@H](O[C@H]2O[C@H](CO)[C@@H](O[C@H]3O[C@H](CO)[C@@H](O[C@H]4O[C@H](CO)[C@@H](O[C@H]5O[C@H](CO)[C@@H](O[C@H]6O[C@H](CO)[C@@H](O)[C@H](O)[C@H]6O)[C@H](O)[C@H]5O)[C@H](O)[C@H]4O)[C@H](O)[C@H]3O)[C@H](O)[C@H]2O)[C@H](O)[C@@H](O)[C@@H]1O [PIV, alpha-maltotetraosyl trehalose] |  |  |  |  |
| 0.23 | OC[C@H]1O[C@H](O[C@H]2O[C@H](CO)[C@@H](O[C@H]3O[C@H](CO)[C@@H](O[C@H]4O[C@H](CO)[C@@H](O[C@H]5O[C@H](CO)[C@@H](O[C@H]6O[C@H](CO)[C@@H](O[C@H]7O[C@H](CO)[C@@H](O)[C@H](O)[C@H]7O)[C@H](O)[C@H]6O)[C@H](O)[C@H]5O)[C@H](O)[C@H]4O)[C@H](O)[C@H]3O)[C@H](O)[C@H]2O)[C@H](O)[C@@H](O)[C@@H]1O [PV, alpha-maltopentaosyl trehalose] |  |  |  |  |
| 0.35 | OC[C@H]1O[C@H](O[C@H]2O[C@H](CO)[C@@H](O[C@H]3O[C@H](CO)[C@@H](O[C@H]4O[C@H](CO)[C@@H](O)[C@H](O)[C@H]4O)[C@H](O)[C@H]3O)[C@H](O)[C@H]2O)[C@H](O)[C@@H](O)[C@@H]1O [PII, alpha-maltosyl trehalose] |  |  |  |  |
| 0.10 | OC[C@H]1O[C@H](O[C@H]2O[C@H](CO)[C@@H](O[C@H]3O[C@H](CO)[C@@H](O[C@H]4O[C@H](CO)[C@@H](O[C@H]5O[C@H](CO)[C@@H](O)[C@H](O)[C@H]5O)[C@H](O)[C@H]4O)[C@H](O)[C@H]3O)[C@H](O)[C@H]2O)[C@H](O)[C@@H](O)[C@@H]1O [PIII, alpha-maltotriosyl trehalose] |  |  |  |  |
